# Reference: patent publication US4575498A, “Method for restoring depleted purine nucleotide pools” (priority 1983, dated 1986)
# “Also recorded” adds a separate entry of the source.
# B1: adenylosuccinate lyase (cardiac muscle) (Mus musculus) (protein)
# chain: AASGDPGSAESYRSPLAARYASREMCFLFSDRYKFQTWRQLWLWLAEAEQTLGLPITDEQIQEMKSNLNNIDFQMAAEEEKRLRHDVMAHVHTFGHCCPKAAGIIHLGATSCYVGDNTDLIILRNAFDLLLPKLARVISRLADFAKDRADLPTLGFTHFQPAQLTTVGKRCCLWIQDLCMDLQNLKRVRDELRFRGVKGTTGTQASFLQLFEGDHQKVEQLDKMVTEKAGFKRAFIITGQTYTRKVDIEVLSVLASLGASVHKICTDIRLLANLKEMEEPFEKQQIGSSAMPYKRNPMRSERCCSLARHLMALTMDPLQTASVQWFERTLDDSANRRICLAEAFLTADTILNTLQNISEGLVVYPKVIERRIRQELPFMATENIIMAMVKAGGSRQDCHEKIRVLSQQAAAVVKQEGGDNDLIERIRADAYFSPIHSQLEHLLDPSSFTGRAPQQVHRFLEEEVRPLLKPYGNEMAVKAELCL
# notes: the hearts and gastrocnemius muscles were excised, weighed, and homogenized to a slurry; from tissue; host or cells: heart of six-week-old C57BL/6J mice; dialyzed 10,000×g supernatant
# B2: adenylosuccinate lyase (skeletal muscle) (Mus musculus) (protein)
# chain: B1 chain
# notes: the hearts and gastrocnemius muscles were excised, weighed, and homogenized to a slurry; from tissue; host or cells: gastrocnemius (skeletal) muscle of six-week-old C57BL/6J mice; dialyzed 10,000×g supernatant
# Assays:
# [1] = target: T1, adenylosuccinate lyase (cardiac muscle) (Mus musculus, UniProt P54822); experiment: Assay of adenylosuccinate lyase, cardiac enzyme; assay type: biochemical, C57BL/6J mice
# T1 construct: the hearts and gastrocnemius muscles were excised, weighed, and homogenized to a slurry; from tissue; host or cells: heart of six-week-old C57BL/6J mice; dialyzed 10,000×g supernatant
# T1 sequence (P54822 2-484 limits assumed): B1 chain
# Procedure: (§1) Preparation and Assay of Adenylosuccinate Lyase--Six-week-old C57BL/6J mice were killed, and the hearts and gastrocnemius muscles were excised, weighed, and homogenized to a slurry in 4 volumes of 50 mM Tris-HCl, pH 7.4 at 25° C. containing 1 mM EDTA and 1 mM β-mercaptoethanol in a TenBroeck glass homogenizer. The homogenate was centrifuged at 10,000×g for 15 min and the supernatant was dialyzed against 1,000 volumes of the extraction buffer for 2 h at 4° C. The lyase activity was partially stabilized by the addition of EDTA and β-mercaptoethanol, but some activity was lost even on storage at -70° C.
# (§2) The assays were carried out at pH 7.4 were reaction mixtures that contained 50 mM Tris-HCl buffer, 1 mM EDTA, 1 mM β-mercaptoethanol, 20 μM adenylosuccinate, and the enzyme extract (protein concentration, 0.13-0.20 mg/ml). The decrease in absorbance at 280 nm was measured using a Gilford recording spectrophotometer. All assays were done at 25° C. and were linear with respect to time of incubation and with the amount of protein in extract added to the assay.
# (§3) These are average values for experiments with 4 separate enzyme preparations. The experimental points in the double reciprocal plots were fitted to the best line by the method of least squares with all points being weighted equally.
# [2] = target: T2, adenylosuccinate lyase (skeletal muscle) (Mus musculus, UniProt P54822); experiment: Assay of adenylosuccinate lyase, skeletal muscle enzyme; assay type: biochemical, C57BL/6J mice
# T2 construct: the hearts and gastrocnemius muscles were excised, weighed, and homogenized to a slurry; from tissue; host or cells: gastrocnemius (skeletal) muscle of six-week-old C57BL/6J mice; dialyzed 10,000×g supernatant
# T2 sequence (P54822 2-484 limits assumed): B1 chain
# Procedure: as §1, §2, §3
# [3] = system: cardiovascular system; settings: prior art statement; cited from earlier work
# [4] = substrate: O=C(O)C[C@H](Nc1ncnc2c1ncn2[C@@H]1O[C@H](COP(=O)(O)O)[C@@H](O)[C@H]1O)C(=O)O; experiment: Assay of adenylosuccinate lyase, cardiac enzyme; assay type: biochemical, C57BL/6J mice; settings: other: cardiac muscle enzyme, pH 7.4, 25° C., 4 enzyme preparations
# Procedure: as §1, §2, §3
# [5] = substrate: O=C(O)C[C@H](Nc1ncnc2c1ncn2[C@@H]1O[C@H](COP(=O)(O)O)[C@@H](O)[C@H]1O)C(=O)O; experiment: Assay of adenylosuccinate lyase, skeletal muscle enzyme; assay type: biochemical, C57BL/6J mice; settings: other: skeletal muscle enzyme, pH 7.4, 25° C., 4 enzyme preparations
# Procedure: as §1, §2, §3
molecule,measurement,setting,value
"NC(=O)c1ncn([C@@H]2O[C@H](COP(=O)(O)O)[C@@H](O)[C@H]2O)c1N [AICAR, 5-Amino-4-imidazolecarboxamide Ribotide]",Ki,[1],4.5 ± 1.7 µM
same,maximal AICAR concentration exceeding Ki of adenylosuccinate lyase,[1]; cardiac muscle,180 fold
same,Ki,[2],7.6 ± 3.2 µM
same,maximal AICAR concentration exceeding Ki of adenylosuccinate lyase,[2]; skeletal muscle,18 fold
Nc1ncnc2c1ncn2[C@@H]1O[C@H](CO)[C@@H](O)[C@H]1O [adenosine],hemodynamic effects,[3],profound changes in the hemodynamic status; also recorded: deleterious hemodynamic effects
OC[C@H]1O[C@@H](n2cnc3c(O)ncnc32)[C@H](O)[C@@H]1O [inosine],hemodynamic effects,[3],deleterious hemodynamic effects
O=c1[nH]cnc2nc[nH]c12 [hypoxanthine],hemodynamic effects,[3],deleterious hemodynamic effects
B1,Km,[4],2.2 ± 0.3 µM
B2,Km,[5],4.5 ± 1.5 µM
